Data reported in publication PMC3832595, “Synthesis of a Pseudo-Disaccharide Library and Its Application to the Characterisation of the Heparanase Catalytic Site” (PLoS ONE, 2013).

Target: T1, human heparanase (Homo sapiens, UniProt Q9Y251)
T1 construct: purchased Apollo Scientific, Cheshire UK
T1 sequence (Q9Y251 158-543 limits assumed): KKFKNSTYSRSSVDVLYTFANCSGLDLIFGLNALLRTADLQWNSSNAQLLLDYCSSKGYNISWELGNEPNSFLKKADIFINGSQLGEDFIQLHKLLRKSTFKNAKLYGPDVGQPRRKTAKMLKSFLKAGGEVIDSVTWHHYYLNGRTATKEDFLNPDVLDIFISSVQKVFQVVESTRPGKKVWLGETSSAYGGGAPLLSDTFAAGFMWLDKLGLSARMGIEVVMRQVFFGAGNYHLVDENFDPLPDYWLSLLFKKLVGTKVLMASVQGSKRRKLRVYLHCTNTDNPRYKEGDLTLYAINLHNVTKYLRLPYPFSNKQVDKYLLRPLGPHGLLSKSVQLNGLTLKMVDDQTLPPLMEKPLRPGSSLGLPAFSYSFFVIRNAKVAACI
T1 sequence (Q9Y251 36-109 limits assumed): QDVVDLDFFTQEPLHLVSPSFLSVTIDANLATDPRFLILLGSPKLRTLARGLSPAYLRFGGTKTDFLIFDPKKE
Assay: Heparanase inhibition assay (biotinylated heparan sulfate degradation, CBD-FGF binding, avidin-POD detection; modified Genway kit)
Assay type: biochemical
Settings: recombinant human heparanase; for IC50: mean of three readings ± standard error, read-out: IC50 (n=3) against human heparanase

Compound `NC1CC(CO)C(OC2OC(CO)C(O)C(O)C2O)CC1O` (stereo not shown) [8a] has an IC50 of 1200 ± 300 µM.
For `NC1CC(CO)C(OC2OC(CO)C(O)C(O)C2O)CC1O` (stereo not shown) [8b], the IC50 was 800 ± 200 µM.
With `NC1CC(CO)C(OC2OC(CO)C(O)C(O)C2O)CC1O` (stereo not shown) [8c] the “Inhibition of heparanase (result in words)” value was “no significant activity” and the IC50 was > 10000 µM.
`NC1CC(CO)C(OC2OC(CO)C(O)C(O)C2O)CC1O` (stereo not shown) [8d] showed an IC50 of 800 ± 200 µM.
For `CCCCOC1CC(O)C(N)CC1CO` (stereo not shown) [compound 11], the “Inhibition of heparanase (result in words)” value was “no significant inhibition” and the IC50 was > 10000 µM.
